Where “and” joins values, the source holds several entries; their conditions need not be identical. Equal values may be shown once. Entries after “also recorded” stand apart in the source; their conditions may differ. Where a name gives a salt, the structure may show the parent alone. Read-outs that look alike come from different tables or passages of the source.
Assays:
SKMEL-5 melanoma = assay: MTT cytotoxicity assay, SKMEL-5; conditions: for IC50: Homo sapiens, SK-MEL-5, […], read-out: Cytotoxicity ED50, SKMEL-5
[1] = test system: five cancer cell cultures; assay: MTT cytotoxicity assay, five cancer cell cultures taken together; conditions: for cytotoxicity (in words): five cancer cell lines; for less cytotoxic than 1a and 5a: relative to 1a and 5a
tubulin [2] = assay: Inhibition of [3H]colchicine binding to tubulin (DEAE-filter); parameters: species or system bovine; conditions: for Colchicine binding % inhibition: 1 μM tubulin, 5 μM [3H]colchicine, 5 μM inhibitor, 10 min, 37° C.
A-549 lung carcinoma = assay: MTT cytotoxicity assay, A-549; conditions: for IC50: Homo sapiens, A549, […]
[3] = test system: HT-29 colon adenocarcinoma; assay: MTT cytotoxicity assay, HT-29; conditions: for IC50: Homo sapiens, HT-29, […]
MLM melanoma = assay: MTT cytotoxicity assay, MLM
tubulin [4] = assay: Inhibition of tubulin polymerization (turbidimetry); assay type: biochemical, bovine; conditions: for increase in IC50 / loss of activity in tubulin polymerization: relative to the parent 5a (8a, 5b) or 8a (12a)
MCF-7 breast carcinoma = assay: MTT cytotoxicity assay, MCF-7; conditions: for IC50: Homo sapiens, MCF7, […]
[5] = test system: DMS 273 small cell lung cancer; assay: Cytotoxicity, DMS 273; conditions: read-out: cytotoxicity GI50, DMS 273; 50% growth inhibition; average of two determinations; 8640 min
OVCAR-3 ovarian cancer = assay: Cytotoxicity, OVCAR-3; conditions: read-out: cytotoxicity GI50, OVCAR-3; 50% growth inhibition; average of two determinations; 8640 min
CAKI-1 renal cancer = assay: Cytotoxicity, CAKI-1; conditions: read-out: cytotoxicity GI50, CAKI-1; 50% growth inhibition; average of two determinations; 8640 min
[6] = read-out: cytotoxicity ED50, five cancer cell lines
[7] = read-out: cytotoxicity ED50, in at least three cell lines
[8] = read-out: Cytotoxicity ED50, A-549
[9] = read-out: Cytotoxicity ED50, HT-29
[10] = read-out: Cytotoxicity ED50, MLM
[11] = first series (Table VIII and text), 37° C., 20 min, read-out: Tubulin polymerization IC50 (±S.D.)
[12] = read-out: Cytotoxicity ED50, MCF-7
[13] = Table X, different glutamate preparation (1M monosodium glutamate and GTP), read-out: inhibn of tubulin polymn IC50 (±SD)
[14] = read-out: Cytotoxicity ED50, A-549, A-549, MTT, six days
[15] = read-out: Cytotoxicity ED50, MLM, MLM, MTT, six days
[16] = read-out: Cytotoxicity ED50, MCF-7, MCF-7, MTT, six days
[17] = second series (Tables V-VII, IX), read-out: Inhibition of Tubulin Polymerization IC50 (±S.D.)

Structure (SMILES) | IC50 (SKMEL-5 melanoma) [µM] | cytotoxicity (in words) [1] | Colchicine binding % inhibition (tubulin [2]) [%] | IC50 (A-549 lung carcinoma; [8]) [µM] | IC50 [3, 9] [µM] | IC50 (MLM melanoma; [10]) [µM] | inhibition of tubulin polymerization (in words) (tubulin [4]) | IC50 (tubulin [4]; [11]) | IC50 (MCF-7 breast carcinoma; [12]) [µM] | also measured
COc1ccc(NCc2cc(OC)c(OC)c(OC)c2)cc1 [compound 12a, 3,4,5-Trimethoxy-N-(4-methoxyphenyl)benzylamine] | 0.0007 | only an order of magnitude less cytotoxic than 8a | 34 | 0.0019 | 0.001 | 0.0016 | only modest inhibitory effects on tubulin polymerization | 23 µM | 0.0024 | IC50 [1, 6]: ~0.001 µM; IC50 [1, 7]: < 1 µM; increase in IC50 / loss of activity in tubulin polymerization (tubulin [4]): 3 -fold
COc1ccc(CCc2cc(OC)c(OC)c(OC)c2)cc1O [compound 1c, reference compound] | 0.0021 | – | 79 | 0.01 | 0.0081 | 0.01 | – | 3.3 µM | 0.33 | inhibition of colchicine binding (in words) (tubulin [2]): inhibit the binding of radiolabeled colchicine to tubulin
COc1cc(/C=C\c2ccccc2)cc(OC)c1OC [compound 5f, (Z)-1-Phenyl-2-(3,4,5-trimethoxyphenyl)ethene] | 0.12 | decreased the activity drastically | 14 | 0.17 | 0.084 | > 25 | – | 36 µM | 0.25 | –
COc1ccc(CCc2cc(OC)c(OC)c(OC)c2)cc1 [compound 8a, 1-(4-Methoxyphenyl)-2-(3,4,5-trimethoxyphenyl)ethane] | 0.00014 | more cytotoxic than dihydrocombretastatin A-4 (1c) in all five cancer cell lines | 65 | 0.00018 | 0.00025 | 0.00018 | strong inhibitors of tubulin polymerization | 7.9 µM | 0.00016 | IC50 [1, 6]: ~0.0002 µM; IC50 [1, 7]: < 1 µM; increase in IC50 / loss of activity in tubulin polymerization (tubulin [4]): ~4 -fold
COc1cc(CNc2ccc(C(C)C)cc2)cc(OC)c1OC [110f, 4-Isopropyl-N-(3,4,5-trimethoxybenzyl)aniline Hydrochloride] | – | – | – | – | – | – | – | – | – | GI50 [5]: 12.9 µM; IC50 (tubulin [4]; [13]): > 40 µM
COc1ccc(N=Cc2cc(OC)c(OC)c(OC)c2)cc1 [108c, 4-Methoxy-N-(3,4,5-trimethoxybenzylidene)aniline] | – | – | – | – | – | – | – | – | – | GI50 [5]: 33 µM; IC50 (tubulin [4]; [13]): > 40 µM; GI50 (OVCAR-3 ovarian cancer): > 100 µM; GI50 (CAKI-1 renal cancer): > 100 µM
COc1cc(CCc2ccc(N(C)C)cc2)cc(OC)c1OC [compound 8n, 1-[4-(Dimethylamino)phenyl]-2-(3,4,5-trimethoxyphenyl)ethane] | 0.059 | – | 31 | 0.083 | 0.077 | 0.12 | only modest inhibitory effects on tubulin polymerization | 29 µM | 0.064 | IC50 [1, 7]: < 1 µM
COc1cc(/C=C\c2ccc(Br)cc2)cc(OC)c1OC [5h, (Z)-1-(4-Bromophenyl)-2-(3,4,5-trimethoxyphenyl)ethene] | 0.0067 | – | 73 | 0.011 | 0.0082 | 0.014 | strong inhibitors of tubulin polymerization; also recorded: active as inhibitors of tubulin polymerization; also recorded: small reductions | 3.1 µM | 0.016 | IC50 ([1]; read-out: cytotoxicity ED50): < 0.1 µM; less cytotoxic than 1a and 5a [1]: about 1000 -fold
COc1ccc(NCc2cc(OC)cc(OC)c2)cc1 [compound 12d] | 2.41 | – | 39 | 5.71 | 17.8 | > 25 | – | 29 µM | 6.08 | –
COc1ccc(/C=C\c2cc(OC)c(OC)c(OC)c2)c(Cl)c1 [compound 5e] | 0.017 | decreased the cytotoxicity | 73 | – | – | – | strong inhibitors of tubulin polymerization; also recorded: active as inhibitors of tubulin polymerization; also recorded: small reductions | 3.5 µM | – | less cytotoxic than 1a and 5a [1]: about 1000 -fold; IC50 (A-549 lung carcinoma; [14]): 0.051 µM; IC50 (MLM melanoma; [15]): 0.14 µM; IC50 (MCF-7 breast carcinoma; [16]): 0.046 µM
COc1cc(/C=C/c2ccc(N(C)C)cc2)cc(OC)c1OC [compound 6n, (E)-1-[4-(N,N-Dimethylamino)phenyl]-2-(3,4,5-trimethoxyphenyl)ethene] | 0.0046 | – | – | 0.0061 | 0.0069 | 0.0125 | neither trans stilbene was able to significantly inhibit tubulin polymerization | > 50 µM | 0.082 | IC50 [1, 7]: < 1 µM
COc1cc([C@@H]2c3cc4c(cc3[C@H](O)[C@H]3COC(=O)[C@H]23)OCO4)cc(OC)c1OC [Podophyllotoxin, reference compound] | – | – | 88 | – | – | – | – | […] | – | IC50 (tubulin [4]; Table X footnote b, different glutamate preparation, read-out: tubulin polymerization IC50, standard agents): […]
COc1cc(/C=C\c2ccc(N(C)C)cc2)cc(OC)c1OC [compound 5n, (Z)-1-[4-(N,N-Dimethylamino)phenyl)-2-(3,4,5-trimethoxyphenyl)ethene] | 0.00015 | – | 83 | 0.0041 | 0.0081 | 0.0094 | strong inhibitors of tubulin polymerization; also recorded: small reductions | 3.4 µM and 3.5 µM | 0.0058 | IC50 [1, 6]: < 0.1 µM; IC50 [1, 7]: < 1 µM
COc1cc(/C=C\c2ccc(OC(C)=O)cc2)cc(OC)c1OC [compound 5p, (Z)-1-(4-Acetoxyphenyl)-2-(3,4,5-trimethoxyphenyl)ethene] | 0.6 | decreased the activity drastically | 24 | 1.7 | 6 | 6.3 | – | 29 µM | 0.3 | –
COc1ccc(/C=C\c2cc(OC)c(OC)c(OC)c2)cc1 [compound 5a, (Z)-1-(4-Methoxyphenyl)-2-(3,4,5-trimethoxyphenyl)ethene] | 0.00026 | – | – | – | – | – | strong inhibitors of tubulin polymerization | 2.2 µM | – | times less cytotoxic than combretastatin A-4 (1a) (SKMEL-5 melanoma; SKMEL-5): ~30 times; IC50 ([1]; read-out: cytotoxicity ED50): < 1 µM; times less cytotoxic than combretastatin A-4 (1a) (A-549 lung carcinoma; A-549): about 20 times; times more cytotoxic than combretastatin A-4 (1a) ([3]; HT-29): approximately 140 times; times less cytotoxic than combretastatin A-4 (1a) (MLM melanoma; MLM): ~7 times; IC50 (tubulin [4]; [17]): 2.5 µM; times more cytotoxic than combretastatin A-4 (1a) (MCF-7 breast carcinoma; MCF-7): about 10 times
COc1cccc(/C=C\c2cc(OC)c(OC)c(OC)c2)c1 [compound 5b, (Z)-1-(3-Methoxyphenyl)-2-(3,4,5-trimethoxy-phenyl)ethene] | 0.06 | decreased the activity drastically | 50 | – | – | – | strong inhibitors of tubulin polymerization; also recorded: active as inhibitors of tubulin polymerization | 8.8 µM | – | IC50 ([1]; read-out: cytotoxicity ED50): < 1 µM; IC50 (A-549 lung carcinoma; [14]): 0.13 µM; IC50 ([3]; read-out: Cytotoxicity ED50, HT-29, HT-29, MTT, six days): 0.09 µM; IC50 (MLM melanoma; [15]): 1.4 µM; increase in IC50 / loss of activity in tubulin polymerization (tubulin [4]): 4 -fold; IC50 (MCF-7 breast carcinoma; [16]): 0.14 µM
COc1cc(CCc2ccc(OCCN(C)C)cc2)cc(OC)c1OC [17f] | 11.4 | decreased cytotoxicity | – | > 25 | 9.8 | > 25 | – | – | 10.3 | IC50 (tubulin [4]; [17]): > 40 µM
COc1cc(/C=C\c2ccc(Cl)cc2)cc(OC)c1OC [5g, (Z)-1-(4-Chlorophenyl)-2-(3,4,5-trimethoxyphenyl)ethene] | 0.01 | – | 55 | 0.08 | 0.05 | 0.17 | strong inhibitors of tubulin polymerization; also recorded: active as inhibitors of tubulin polymerization; also recorded: small reductions | 4.8 µM | 0.18 | IC50 ([1]; read-out: cytotoxicity ED50): < 0.1 µM; less cytotoxic than 1a and 5a [1]: about 1000 -fold

Reference: US5430062A, “Stilbene derivatives as anticancer agents” (priority 1993, dated 1995)
